Series [1] concerns HBV. Description: Anti-HBV activity, HepG2.2.15 stable transfected cell line, HBV DNA from secreted virions by realtime PCR. It is filed as cell-based. Particulars: Hepatitis B virus, HepG2.2.15, 144 h, HepG2.2.15 cells, 6 days of treatment, HBV DNA from secreted virions; read-out: HepG2 2.15 EC50.
A short description of series [2]: Cytotoxicity in HepG2 cells, Resazurin viability assay. Particulars: human, HepG2 cells, HepG2 4 days CC50 (μM), incubated for 4 days, Resazurin assay.
The subject of series [3] is HBV. Description: Anti-HBV activity, HepG2.117 inducibly HBV producing cell line (Tet-off), intracellular HBV DNA by realtime PCR. Particulars: Hepatitis B virus, HepG2.117, 72 h, HepG2.117 cells, 3 days of treatment, intracellular HBV DNA; read-out: HepG2 117 EC50. The format is cell-based.

The EC50 is the concentration giving half of the maximal effect. In general, CC50 refers to the concentration at which the toxic effect on the cells reaches its halfway point. A low value points to greater toxicity to the cells.

For the molecule `Cc1c(S(=O)(=O)N[C@@H](C)C(F)(F)F)cn(C)c1C(=O)Nc1ccc(F)c(Cl)c1` [Compound 147, N-(3-Chloro-4-fluorophenyl)-1,3-dimethyl-4-{[(1S)-2,2,2-trifluoro-1-methylethyl]sulfamoyl}-1H-pyrrole-2-carboxamide], the EC50 came out at 80 nM in series [1] and 40 nM in series [3]. Moreover, in series [2], the CC50 at 4 days was > 25 µM.

For the molecule `Cc1c(S(=O)(=O)NC2(C)COC2)cn(C)c1C(=O)Nc1ccc(F)c(F)c1` [Compound 148, N-(3,4-Difluorophenyl)-1,3-dimethyl-4-[(3-methyloxetan-3-yl)sulfamoyl]-1H-pyrrole-2-carboxamide], the EC50 in series [1] came out at 110 nM; in series [3], 70 nM. For the same molecule, in series [2], the CC50 at 4 days was > 25 µM.

On to `Cc1c(S(=O)(=O)NC2(C)COC2)cn(C)c1C(=O)Nc1ccc(F)c(Cl)c1` [Compound 149, N-(3-Chloro-4-fluorophenyl)-1,3-dimethyl-4-[(3-methyloxetan-3-yl)sulfamoyl]-1H-pyrrole-2-carboxamide], for which the EC50 is 40 nM in series [1] and 30 nM in series [3]. In addition, the CC50 at 4 days in series [2] was > 25 µM.

As for `Cc1c(S(=O)(=O)N[C@H](C)C(F)(F)F)cn(C)c1C(=O)Nc1ccc(F)c(C#N)c1` [Compound 150, N-(3-Cyano-4-fluorophenyl)-1,3-dimethyl-4-{[(1R)-2,2,2-trifluoro-1-methylethyl]sulfamoyl}-1H-pyrrole-2-carboxamide], the results for the EC50 in series [1] and in series [3] were 90 nM and 60 nM, respectively. Further, the CC50 at 4 days in series [2] is > 25 µM.

`Cc1c(S(=O)(=O)N[C@@H](C)C(F)(F)F)cn(C)c1C(=O)Nc1ccc(F)c(C#N)c1` [Compound 151, N-(3-Cyano-4-fluorophenyl)-1,3-dimethyl-4-{[(1S)-2,2,2-trifluoro-1-methylethyl]sulfamoyl}-1H-pyrrole-2-carboxamide]: the EC50 came out at 80 nM in series [1] and 70 nM in series [3]. Besides, in series [2], the CC50 at 4 days was > 25 µM.

Consider `Cc1c(S(=O)(=O)NC2(C)COC2)cn(C)c1C(=O)Nc1ccc(F)c(C#N)c1` [Compound 152, N-3-Cyano-4-fluoromethyl-4-[(3-methyloxetan-3-yl)sulfamoyl]-1H-pyrrole-2-carboxamide], for which the EC50 in series [1] was 240 nM; in series [3], 80 nM. The CC50 at 4 days in series [2] is > 25 µM.

As to `Cc1c(S(=O)(=O)N[C@H](C)C(F)(F)F)cn(C)c1C(=O)Nc1ccc(F)c(C(F)(F)F)c1` [Compound 153, N-[4-Fluoro-3-(trifluoromethyl)phenyl]-1,3-dimethyl-4-{[(1R)-2,2,2-trifluoro-1-methylethyl]sulfamoyl}-1H-pyrrole-2-carboxamide], the results for the EC50 in series [1] and in series [3] were 270 nM and 150 nM, respectively. Also, the CC50 at 4 days in series [2] was > 25 µM.

With `C[C@H](NS(=O)(=O)c1cc(C(=O)Nc2ccc(F)c(F)c2F)n(C)c1)C(F)(F)F` [Compound 154, 1-Methyl-4-{[(1S)-2,2,2-trifluoro-1-methylethyl]sulfamoyl}-N-(2,3,4-trifluorophenyl)-1H-pyrrole-2-carboxamide], the EC50 in series [1] is 130 nM; in series [3], 80 nM. Moreover, the CC50 at 4 days in series [2] is > 25 µM.

In the case of `C[C@H](NS(=O)(=O)c1cc(C(=O)Nc2ccc(F)c(Br)c2F)n(C)c1)C(F)(F)F` [Compound 155, N-(3-Bromo-2,4-difluorophenyl)-1-methyl-4-{[(1S)-2,2,2-trifluoro-1-methylethyl]sulfamoyl}-1H-pyrrole-2-carboxamide], the EC50 was found to be 30 nM in series [1] and 50 nM in series [3]. For the same molecule, the CC50 at 4 days in series [2] is > 25 µM.

As to `C[C@H](NS(=O)(=O)c1cc(C(=O)Nc2ccc(F)c(Cl)c2F)n(C)c1)C(F)(F)F` [Compound 156, N-(3-Chloro-2,4-difluorophenyl)-1-methyl-4-{[(1S)-2,2,2-trifluoro-1-methylethyl]sulfamoyl}-1H-pyrrole-2-carboxamide], the EC50 was 40 nM in series [1] and 30 nM in series [3]. In addition, the CC50 at 4 days in series [2] is > 25 µM.

Regarding `C[C@@H](NS(=O)(=O)c1cc(C(=O)Nc2ccc(F)c(C#N)c2)n(C)c1)C(F)(F)F` [Compound 157, N-(3-cyano-4-fluoro-phenyl)-1-methyl-4-[[(1R)-2,2,2-trifluoro-1-methylethyl]sulfamoyl]pyrrole-2-carboxamide], the EC50 came out at 80 nM in series [1] and 50 nM in series [3]. The CC50 at 4 days in series [2] is > 25 µM.

Consider `C[C@@H](NS(=O)(=O)c1cc(C(=O)Nc2cccc(C#N)c2)n(C)c1)C(F)(F)F` [Compound 158, N-(3-Cyanophenyl)-1-methyl-4-{[(1R)-2,2,2-trifluoro-1-methylethyl]-sulfamoyl}-1H-pyrrole-2-carboxamide], for which the EC50 in series [1] is 120 nM; in series [3], 360 nM. The CC50 at 4 days in series [2] was > 25 µM.

For the molecule `C[C@@H](NS(=O)(=O)c1cc(C(=O)Nc2cccc(C(F)(F)F)c2F)n(C)c1)C(F)(F)F` [Compound 159, N-[2-Fluoro-3-(trifluoromethyl)phenyl]-1-methyl-4-{[(1R)-2,2,2-trifluoro-1-methylethyl]sulfamoyl}-1H-pyrrole-2-carboxamide], the EC50 in series [1] worked out at 90 nM; in series [3], 810 nM. The CC50 at 4 days in series [2] is > 25 µM.

Turning to `C[C@@H](NS(=O)(=O)c1cc(C(=O)Nc2cccc(C#N)c2F)n(C)c1)C(F)(F)F` [Compound 160, N-(3-Cyano-2-fluorophenyl)-1-methyl-4-{[(1R)-2,2,2-trifluoro-1-methylethyl]sulfamoyl}-1H-pyrrole-2-carboxamide], the values for the EC50 in series [1] and in series [3] were 160 nM and 130 nM, respectively. Further, the CC50 at 4 days in series [2] was > 25 µM.

Take `Cn1cc(S(=O)(=O)NC2(C)COC2)cc1C(=O)Nc1ccc(F)c(C(C)(F)F)c1` [Compound 161, N-[3-(1,1-Difluoroethyl)-4-fluorophenyl]-1-methyl-4-[(3-methyloxetan-3-yl)sulfamoyl]-1H-pyrrole-2-carboxamide]: the EC50 is > 1000 nM in series [1] and 910 nM in series [3]. Besides, the CC50 at 4 days in series [2] was > 25 µM.

With `Cn1cc(S(=O)(=O)NC(C)(C)C)cc1C(=O)Nc1ccc(F)c(C(C)(F)F)c1` [Compound 162, 4-(tert-Butylsulfamoyl)-N-[3-(1,1-difluoroethyl)-4-fluorophenyl]-1-methyl-1H-pyrrole-2-carboxamide], the EC50 was > 1000 nM in series [1] and 890 nM in series [3]. For the same molecule, in series [2], the CC50 at 4 days is > 25 µM.

With `Cn1cc(S(=O)(=O)NC(C)(C)C(F)(F)F)cc1C(=O)Nc1cc(Cl)c(F)c(Cl)c1` [Compound 163, N-(3,5-Dichloro-4-fluorophenyl)-1-methyl-4-[(2,2,2-trifluoro-1,1-dimethylethyl)sulfamoyl]-1H-pyrrole-2-carboxamide], the EC50 came out at 180 nM in series [1] and 110 nM in series [3]. This molecule gave a CC50 at 4 days in series [2] of 14.3 µM.

On to `Cn1cc(S(=O)(=O)NC2CC(F)(F)C2)cc1C(=O)Nc1cc(F)c(F)c(Cl)c1` [Compound 164, N-(3-Chloro-4,5-difluorophenyl)-4-[(3,3-difluorocyclobutyl)sulfamoyl]-1-methyl-1H-pyrrole-2-carboxamide], for which the EC50 in series [1] and in series [3] was 130 nM throughout. Further, the CC50 at 4 days in series [2] was > 25 µM.
